Starred links: 1 amine or outer side, 2 acyl side, 3 side chain; linkers in the order of their positions; H or OH if unused. Positions of bridges follow the written chain, without caps; N, C: chain ends. Non-standard residues stand in square brackets, D forms with d. Residues, ends and D or L forms follow the SMILES beside them. Chains are numbered I, II in the order given. N(4-MeOBn)Gly = COc1ccc(CNCC(=O)O)cc1; N((CH2)3OiPr)Gly = CC(C)OCCCNCC(=O)O; X1 = CC(c1ccccc1)N(CC(=O)[*:2])[*:1]; NAllylGly = C=CCNCC(=O)O; Nleu = CC(C)CNCC(=O)O; Nme = COCCNCC(=O)O
System: SARS-CoV-2 D614G pseudovirus
Type: cell-based, human H1299 cells

Compound	SARS-CoV-2 mutant pseudovirus infection
C=CCN(CC(=O)N(CC(=O)NC(CCCCN)C(=O)NC(CCSC)C(=O)NCCCCC(NC(=O)C(CCSC)NC(=O)C(CCCCN)NC(=O)CN(C(=O)CN(CC=C)C(=O)CN(Cc1ccc(OC)cc1)C(=O)CN(C(=O)CN(CCOC)C(=O)CNCC(C)C)C(C)c1ccccc1)C(C)c1ccccc1)C(N)=O)C(C)c1ccccc1)C(=O)CN(Cc1ccc(OC)cc1)C(=O)CN(C(=O)CN(CCOC)C(=O)CNCC(C)C)C(C)c1ccccc1 (centres unmarked) [ACE2P1D1] (I: H-[Nleu][Nme][X1][N(4-MeOBn)Gly][NAllylGly][X1]KMK-NH2 / II: H-[Nleu][Nme][X1][N(4-MeOBn)Gly][NAllylGly][X1]KM; amide I:9-II:C; configuration not given here)	effective in inhibiting SARS-CoV-2 mutant pseudovirus infection
COCCN(CC(=O)NC(CCCCN)C(=O)NC(CCSC)C(=O)NCCCCC(NC(=O)C(CCSC)NC(=O)C(CCCCN)NC(=O)CN(CCOC)C(=O)CN(CC(C)C)C(=O)CN(CC(C)C)C(=O)CN(CCCOC(C)C)C(=O)CN(Cc1ccc(OC)cc1)C(=O)CNCc1ccc(OC)cc1)C(N)=O)C(=O)CN(CC(C)C)C(=O)CN(CC(C)C)C(=O)CN(CCCOC(C)C)C(=O)CN(Cc1ccc(OC)cc1)C(=O)CNCc1ccc(OC)cc1 (centres unmarked) [ACE2P2D1] (I: H-[N(4-MeOBn)Gly][N(4-MeOBn)Gly][N((CH2)3OiPr)Gly][Nleu][Nleu][Nme]KMK-NH2 / II: H-[N(4-MeOBn)Gly][N(4-MeOBn)Gly][N((CH2)3OiPr)Gly][Nleu][Nleu][Nme]KM; amide I:9-II:C; configuration not given here)	effective in inhibiting SARS-CoV-2 mutant pseudovirus infection

Reference: US20230331777A1, “NOVEL PEPTOID COMPOUNDS THAT BIND TO CELL RECEPTOR ACE2 AND PREVENT VIRUS ENTRY INTO CELLS” (priority 2020, published 2023)
